Drawing on ChEMBL document CHEMBL1142805, “Study on supramolecular complexing ability vis-à-vis estimation of pKa of substituted sulfonamides: dominating role of Balaban index (J)” (Bioorg Med Chem Lett, 2005), this text covers pKa for 1 compound.

The data set can be described thus: Protonation constant (Proton-ligand formation constant) was determined. Format: ADME.

On to `O=[N+]([O-])c1ccc(S(=O)(=O)Nc2ccccc2)cc1`, for which the pKa was 6.66.

As usually defined, the pKa is the pH at which an ionisable group is half protonated. Read a high pKa as a weaker acid or stronger base.
